Data from ChEMBL document CHEMBL4393657, “Tetrazole hybrids and their antifungal activities” (2019).
Values after ≈ are worked out from the molar mass of the structure shown.

How the values were obtained:
Format in all cases: functional
Candida albicans [1] = assay: Antifungal activity against Candida albicans ATCC 885653 assessed as inhibition zone at 100 ug/ml incubated for 48 to 72 hrs by agar-diffusion method; settings: read-out: IZ
Aspergillus flavus [2] = assay: Antifungal activity against Aspergillus flavus assessed as inhibition zone at 25 ug/ml by disk diffusion method; settings: read-out: IZ
Aspergillus niger [3] = assay: Antifungal activity against Aspergillus niger assessed as inhibition zone at 25 ug/ml by disk diffusion method; settings: read-out: IZ
Candida albicans [4] = assay: Antifungal activity against Candida albicans assessed as inhibition zone at 25 ug/ml by disk diffusion method; settings: read-out: IZ
Aspergillus fumigatus = assay: Antifungal activity against Aspergillus fumigatus assessed as inhibition zone at 25 ug/ml by disk diffusion method; settings: read-out: IZ
Candida albicans [5] = assay: Antifungal activity against Candida albicans assessed as reduction in fungal cell growth incubated for 48 hrs by broth microdilution method
Aspergillus niger [6] = assay: Antifungal activity against Aspergillus niger assessed as reduction in fungal cell growth incubated for 48 hrs by broth microdilution method
Candida albicans [7] = assay: Antifungal activity against Candida albicans assessed as inhibition zone at 125 ug/ml by disk diffusion method; settings: read-out: IZ
Aspergillus niger [8] = assay: Antifungal activity against Aspergillus niger NCCS 1196 assessed as inhibition zone at 500 ug/ml by disk diffusion method; settings: read-out: IZ
Candida albicans [9] = assay: Antifungal activity against Candida albicans NCCS 3471 assessed as inhibition zone at 500 ug/ml by disk diffusion method; settings: read-out: IZ
Aspergillus niger [10] = assay: Antifungal activity against Aspergillus niger
Rhizopus arrhizus = assay: Antifungal activity against Rhizopus arrhizus
Candida albicans [11] = assay: Antifungal activity against Candida albicans
Aspergillus flavus [12] = assay: Antifungal activity against Aspergillus flavus
Mucor indicus = assay: Antifungal activity against Mucor indicus
Candida albicans [13] = assay: Antifungal activity against Candida albicans assessed as reduction in fungal cell growth incubated for 24 hrs by broth microdilution method

Q: `NCCSc1nc2ccccc2c2nnnn12` was tested. Which zone of inhibition at 100 µg/mL (Candida albicans [1]) did it give?
A: 6 to 22 mm

Q: For `Clc1ccc(OCc2cn(Cc3ccc(-c4ccccc4-c4nnn[nH]4)cc3)nn2)cc1`, which zone of inhibition at 25 µg/mL (Aspergillus flavus [2]) is on record?
A: 11 to 18 mm

Q: What about the zone of inhibition at 25 µg/mL (Aspergillus niger [3]) of the same compound?
A: 11 to 18 mm

Q: And the zone of inhibition at 25 µg/mL (Candida albicans [4])?
A: 11 to 18 mm

Q: And the zone of inhibition at 25 µg/mL (Aspergillus fumigatus)?
A: 11 to 18 mm

Q: How did the MIC (Candida albicans [5]) turn out when `S=c1[nH]c2c(c3nnnn13)C(c1ccc(Cl)cc1)c1ccc3ccccc3c1O2` (stereo unspecified) was run?
A: 50 to 400 µg/mL (≈ 120 to 957 µM)

Q: What about the MIC (Aspergillus niger [6]) of the same compound?
A: 50 to 400 µg/mL (≈ 120 to 957 µM)

Q: What does the source list for `Clc1ccccc1OCc1cn(Cc2ccc(-c3ccccc3-c3nnn[nH]3)cc2)nn1`?
A: zone of inhibition at 25 µg/mL (Aspergillus flavus [2]): 11 to 18 mm; zone of inhibition at 25 µg/mL (Aspergillus niger [3]): 11 to 18 mm; zone of inhibition at 25 µg/mL (Candida albicans [4]): 11 to 18 mm; zone of inhibition at 25 µg/mL (Aspergillus fumigatus): 11 to 18 mm

Q: How did the zone of inhibition at 125 µg/mL (Candida albicans [7]) turn out when `O=C(O)c1ccc(/N=C/c2cc3cc(-c4nc5ccccc5[nH]4)ccc3n3nnnc23)cc1` was run?
A: 7 to 12 mm

Q: For `Fc1ccc(C2c3ccc4ccccc4c3Oc3[nH]c(=S)n4nnnc4c32)cc1` (stereo unspecified), which MIC (Candida albicans [5]) is on record?
A: 50 to 400 µg/mL (≈ 125 to 996 µM)

Q: And the MIC (Aspergillus niger [6])?
A: 50 to 400 µg/mL (≈ 125 to 996 µM)

Q: With `Clc1ccc(/N=C/c2cc3cc(-c4nc5ccccc5[nH]4)ccc3n3nnnc23)cc1` as the compound, how does the zone of inhibition at 125 µg/mL (Candida albicans [7]) read?
A: 7 to 12 mm

Q: `CC(=O)N1N=C(Cn2cc(-c3nn(-c4ccncc4)cc3-c3nnnn3-c3ccc(C(F)(F)F)cc3)c3cc(Cl)ccc32)OC1(C)c1ccc([N+](=O)[O-])cc1` (stereo unspecified) was tested. Which zone of inhibition at 500 µg/mL (Aspergillus niger [8]) did it give?
A: 11 to 20 mm

Q: And the zone of inhibition at 500 µg/mL (Candida albicans [9])?
A: 11 to 20 mm

Q: Which results are given for `O=C(O)c1cn(C2CC2)c2nc(N3CCN(CC(=O)c4nnnn4-c4ccccc4)CC3)c(F)cc2c1=O`?
A: MIC (Aspergillus niger [10]): 6.25 to 100 µg/mL (≈ 12.1 to 193 µM); MIC (Rhizopus arrhizus): 6.25 to 100 µg/mL (≈ 12.1 to 193 µM); MIC (Candida albicans [11]): 6.25 to 100 µg/mL (≈ 12.1 to 193 µM); MIC (Aspergillus flavus [12]): 6.25 to 100 µg/mL (≈ 12.1 to 193 µM); MIC (Mucor indicus): 6.25 to 100 µg/mL (≈ 12.1 to 193 µM)

Q: Which MIC (Candida albicans [5]) does the source give for `O=[N+]([O-])c1cccc(C2c3ccc4ccccc4c3Oc3[nH]c(=S)n4nnnc4c32)c1` (stereo unspecified) here?
A: 50 to 400 µg/mL (≈ 117 to 934 µM)

Q: What about the MIC (Aspergillus niger [6]) of the same compound?
A: 50 to 400 µg/mL (≈ 117 to 934 µM)

Q: For `C(=N\c1ccccc1)/c1cc2cc(-c3nc4ccccc4[nH]3)ccc2n2nnnc12`, which zone of inhibition at 125 µg/mL (Candida albicans [7]) is on record?
A: 7 to 12 mm

Q: `CC(=O)N1N=C(Cn2cc(-c3nn(-c4ccncc4)cc3-c3nnnn3-c3ccc(C(F)(F)F)cc3)c3cc(Cl)ccc32)OC1(C)c1ccc(Cl)cc1` (stereo unspecified) was tested. Which zone of inhibition at 500 µg/mL (Aspergillus niger [8]) did it give?
A: 11 to 20 mm

Q: And the zone of inhibition at 500 µg/mL (Candida albicans [9])?
A: 11 to 20 mm

Q: For `CC(=O)N1N=C(Cn2cc(-c3nn(-c4ccncc4)cc3-c3nnnn3-c3ccc(C(F)(F)F)cc3)c3cc(Cl)ccc32)OC1(C)c1ccc(Br)cc1` (stereo unspecified), which zone of inhibition at 500 µg/mL (Aspergillus niger [8]) is on record?
A: 11 to 20 mm

Q: What about the zone of inhibition at 500 µg/mL (Candida albicans [9]) of the same compound?
A: 11 to 20 mm

Q: For `C[C@@H]1[C@H](O)[C@@H](C)/C=C/C=C/C=C/C=C/C=C/C=C/C=C/[C@H](O[C@@H]2O[C@H](C)[C@@H](O)[C@H](N)[C@@H]2O)C[C@@H]2O[C@](O)(C[C@@H](O)C[C@@H](O)[C@H](O)CC[C@@H](O)C[C@@H](O)CC(=O)O[C@H]1C)C[C@H](O)[C@H]2C(=O)O` [AMPHOTERICIN B], which MIC (Candida albicans [13]) is on record?
A: < 0.48 µg/mL

Q: With `O=C(O)c1cccc(/N=C/c2cc3cc(-c4nc5ccccc5[nH]4)ccc3n3nnnc23)c1` as the compound, how does the zone of inhibition at 125 µg/mL (Candida albicans [7]) read?
A: 7 to 12 mm

Q: For `Cc1ccc(OCc2cn(Cc3ccc(-c4ccccc4-c4nnn[nH]4)cc3)nn2)cc1`, which zone of inhibition at 25 µg/mL (Aspergillus flavus [2]) is on record?
A: 11 to 18 mm

Q: What about the zone of inhibition at 25 µg/mL (Aspergillus niger [3]) of the same compound?
A: 11 to 18 mm

Q: What about the zone of inhibition at 25 µg/mL (Candida albicans [4]) of the same compound?
A: 11 to 18 mm

Q: What about the zone of inhibition at 25 µg/mL (Aspergillus fumigatus) of the same compound?
A: 11 to 18 mm

Q: What does the source list for `c1ccc(OCc2cn(Cc3ccc(-c4ccccc4-c4nnn[nH]4)cc3)nn2)cc1`?
A: zone of inhibition at 25 µg/mL (Aspergillus flavus [2]): 11 to 18 mm; zone of inhibition at 25 µg/mL (Aspergillus niger [3]): 11 to 18 mm; zone of inhibition at 25 µg/mL (Candida albicans [4]): 11 to 18 mm; zone of inhibition at 25 µg/mL (Aspergillus fumigatus): 11 to 18 mm

Q: With `COc1ccc(C2(C)OC(Cn3cc(-c4nn(-c5ccncc5)cc4-c4nnnn4-c4ccc(C(F)(F)F)cc4)c4cc(Cl)ccc43)=NN2C(C)=O)cc1` (stereo unspecified) as the compound, how does the zone of inhibition at 500 µg/mL (Aspergillus niger [8]) read?
A: 11 to 20 mm

Q: What about the zone of inhibition at 500 µg/mL (Candida albicans [9]) of the same compound?
A: 11 to 20 mm

Q: Which zone of inhibition at 25 µg/mL (Aspergillus flavus [2]) does the source give for `Cc1ccccc1OCc1cn(Cc2ccc(-c3ccccc3-c3nnn[nH]3)cc2)nn1` here?
A: 11 to 18 mm

Q: And the zone of inhibition at 25 µg/mL (Aspergillus niger [3])?
A: 11 to 18 mm

Q: And the zone of inhibition at 25 µg/mL (Candida albicans [4])?
A: 11 to 18 mm

Q: What about the zone of inhibition at 25 µg/mL (Aspergillus fumigatus) of the same compound?
A: 11 to 18 mm

Q: With `Cc1ccc(C(=O)CSc2nc3ccccc3c3nnnn23)cc1` as the compound, how does the zone of inhibition at 100 µg/mL (Candida albicans [1]) read?
A: 6 to 22 mm
